Patent US9050346B2, “Bromodomain inhibitors” (AbbVie Inc., priority 2013, dated 2015)
One block for each compound: values may come before it.

What was measured:
BRD4 (BDII_E352-M457) = biological target: T1, BRD4 (BDII_E352-M457) (Homo sapiens, UniProt O60885); test: TR-FRET bromodomain binding assay, BRD4 second bromodomain
T1 construct: made in house
Procedure: (§1) A time-resolved fluorescence resonance energy transfer (TR-FRET) assay was used to determine the affinities of compounds of the Examples listed in Table 1 for each bromodomain of BRD4. His-tagged first (BD1: amino acids K57-E168) and second (BD2: amino acids E352-E168) bromodomains of BRD4 were expressed and purified. An Alexa647-labeled BET-inhibitor was used as the fluorescent probe in the assay.
(§2) Compound dilution series were prepared in DMSO via an approximately 3-fold serial dilution from one of the following: • Assay method A: 2.5 mM-800 nM • Assay method B: 2.5 mM-797 nM • Assay method C: 1250 μM-21 nM • Assay method D: 500 μM-8.5 nM • Assay method E: 0.47 mM to 7.8 nM • Assay method F: 250 μM-4.2 nM • Assay method G: 0.047 mM to 0.78 nM or 5-fold serial dilution from Assay Method A or Assay Method B.
(§3) For Assay methods A, C, D, and F: Compounds were then diluted 6:100 in assay buffer (20 mM Sodium Phosphate, pH 6.0, 50 mM NaCl, 1 mM Ethylenediaminetetraacetic acid, 0.01% Triton X-100, 1 mM DL-Dithiothreitol) to yield 3× working solutions. Six microliters (μL) of the working solution was then transferred to white, low-volume assay plates (Costar #3673). A 1.5× assay mixture containing His-tagged bromodomain, Europium-conjugated anti-His antibody (Invitrogen PV5596) and the Alexa-647-conjugated probe molecule was also prepared. Twelve μL of this solution were added to the assay plate to reach a final volume of 18 μL.
(§4) For Assay methods B, E, and G: Compound dilutions were added directly into white, low-volume assay plates (Perkin Elmer Proxiplate 384 Plus#6008280) using a Labcyte Echo in conjunction with Labcyte Access and Thermo Multidrop CombinL robotics. Compounds were then suspended in eight microliters (μL) of assay buffer (20 mM Sodium Phosphate, pH 6.0, 50 mM NaCl, 1 mM Ethylenediaminetetraacetic acid disodium salt dihydrate, 0.01% Triton X-100, 1 mM DL-Dithiothreitol) containing His-tagged bromodomain, Europium-conjugated anti-His antibody (Invitrogen PV5596) and Alexa-647-conjugated probe.
(§5) The final concentration of 1× assay mixture for assay methods A, B, C, D, E, F, and G contains 2% DMSO, 8 nM His-tagged bromodomain, 1 nM Europium-conjugated anti-His-tag antibody and 100 nM or 30 nM probe (for BDI or BDII, respectively) and compound concentration in the range of: 50 μM-16 nM for method A, 49.02 μM-15.63 nM for method B, 25 μM-423 pM for method C, 10 μM-169 pM for method D, 9.19 μM-150 pM for method E, 5 μM-85 pM for method F, and 0.92 μM-15 pM for method G.
(§6) After a one-hour equilibration at room temperature, TR-FRET ratios were determined using an Envision multilabel plate reader (Ex 340, Em 495/520).
(§7) TR-FRET data were normalized to the means of 24 no-compound controls (“high”) and 8 controls containing 1 μM un-labeled probe (“low”). Percent inhibition was plotted as a function of compound concentration and the data were fit with the 4 parameter logistic equation to obtain IC50s Inhibition constants (Ki) were calculated from the IC50s, probe Kd and probe concentration. Typical Z′ values were between 0.65 and 0.75. The minimum significant ratio was determined to evaluate assay reproducibility (Eastwood et al., (2006) J Biomol Screen, 11: 253-261). The MSR was determined to be 2.03 for BDI and 1.93 for BDII, and a moving MSR (last six run MSR overtime) for both BDI and BDII was typically <3.

BRD4 (BDI_K57-E168) = biological target: T2, BRD4 (BDI_K57-E168) (Homo sapiens, UniProt O60885); test: TR-FRET bromodomain binding assay, BRD4 first bromodomain; details: His-tagged BD1, 100 nM Alexa647 probe; Ki calculated from IC50; dilution protocol A-G
T2 construct: BD1: amino acids K57-E168; made in house
Procedure: as §1, §2, §3, §4, §5, §6, §7

SMILES: Cc1[nH]c(-c2cc(CN3CCN(C)CC3)ccc2Oc2ccc(F)cc2F)c2c1C(=O)NCC2 [Example 102, 1-{2-(2,4-difluorophenoxy)-5-[(4-methylpiperazin-1-yl)methyl]phenyl}-3-methyl-2,5,6,7-tetrahydro-4H-pyrrolo[3,4-c]pyridin-4-one]
Ki (BRD4 (BDII_E352-M457)): 3120 nM | Ki (BRD4 (BDI_K57-E168)): 1560 nM

SMILES: Cc1[nH]c(-c2ccccc2Oc2ccccc2)c2cc(-c3nc(-c4ccccc4)no3)[nH]c(=O)c12 [Example 46, 3-methyl-1-(2-phenoxyphenyl)-6-(3-phenyl-1,2,4-oxadiazol-5-yl)-2H-pyrrolo[3,4-c]pyridin-4(5H)-one]
Ki (BRD4 (BDII_E352-M457)): 1220 nM | Ki (BRD4 (BDI_K57-E168)): 1250 nM

SMILES: CCCc1noc(-c2cc3c(-c4ccccc4Oc4ccccc4)[nH]c(C)c3c(=O)[nH]2)n1 [Example 47, 3-methyl-1-(2-phenoxyphenyl)-6-(3-propyl-1,2,4-oxadiazol-5-yl)-2H-pyrrolo[3,4-c]pyridin-4(5H)-one]
Ki (BRD4 (BDII_E352-M457)): 2520 nM | Ki (BRD4 (BDI_K57-E168)): 519 nM

SMILES: Cc1ccc(S(=O)(=O)Nc2ccccc2-c2[nH]c(C)c3c(=O)[nH]ncc23)cc1 [Example 77, 4-methyl-N-[2-(7-methyl-1-oxo-2,6-dihydro-1H-pyrrolo[3,4-d]pyridazin-5-yl)phenyl]benzenesulfonamide]
Ki (BRD4 (BDII_E352-M457)): > 22200 nM | Ki (BRD4 (BDI_K57-E168)): > 13000 nM

SMILES: Cc1[nH]c(-c2cc(S(C)(=O)=O)ccc2Oc2ccc(F)cc2F)c2cc(C(=O)O)[nH]c(=O)c12 [Example 40, 1-[2-(2,4-difluorophenoxy)-5-(methylsulfonyl)phenyl]-3-methyl-4-oxo-4,5-dihydro-2H-pyrrolo[3,4-c]pyridine-6-carboxylic acid]
Ki (BRD4 (BDII_E352-M457)): 1720 nM | Ki (BRD4 (BDI_K57-E168)): 358 nM

SMILES: Cc1[nH]c(-c2ccccc2Oc2ccccc2)c2nc(C(=O)O)[nH]c(=O)c12 [Example 86, 5-methyl-4-oxo-7-(2-phenoxyphenyl)-4,6-dihydro-3H-pyrrolo[3,4-d]pyrimidine-2-carboxylic acid]
Ki (BRD4 (BDII_E352-M457)): 12300 nM | Ki (BRD4 (BDI_K57-E168)): 1370 nM

SMILES: Cc1[nH]c(-c2ccccc2Oc2ccccc2)c2cc(-c3nc(-c4ccc(N(C)C)cc4)no3)[nH]c(=O)c12 [Example 62, 6-(3-(4-(dimethylamino)phenyl)-1,2,4-oxadiazol-5-yl)-3-methyl-1-(2-phenoxyphenyl)-2H-pyrrolo[3,4-c]pyridin-4(5H)-one]
Ki (BRD4 (BDII_E352-M457)): > 4080 nM | Ki (BRD4 (BDI_K57-E168)): > 2380 nM

SMILES: Cc1[nH]c(-c2cc(S(C)(=O)=O)ccc2F)c2c1C(=O)NCC2 [Example 99, 1-[2-fluoro-5-(methylsulfonyl)phenyl]-3-methyl-2,5,6,7-tetrahydro-4H-pyrrolo[3,4-c]pyridin-4-one]
Ki (BRD4 (BDII_E352-M457)): > 4440 nM | Ki (BRD4 (BDI_K57-E168)): 1620 nM

SMILES: Cc1[nH]c(-c2ccccc2Oc2ccc(F)cc2F)c2cc(C(=O)O)[nH]c(=O)c12 [Example 22, 1-[2-(2,4-difluorophenoxy)phenyl]-3-methyl-4-oxo-4,5-dihydro-2H-pyrrolo[3,4-c]pyridine-6-carboxylic acid]
Ki (BRD4 (BDII_E352-M457)): 2790 nM | Ki (BRD4 (BDI_K57-E168)): 225 nM

SMILES: CCOC(=O)c1cc2c(-c3cc(Cl)ccc3Oc3ccc(F)cc3F)[nH]c(C)c2c(=O)[nH]1 [Example 24, ethyl 1-[5-chloro-2-(2,4-difluorophenoxy)phenyl]-3-methyl-4-oxo-4,5-dihydro-2H-pyrrolo[3,4-c]pyridine-6-carboxylate]
Ki (BRD4 (BDII_E352-M457)): 2750 nM | Ki (BRD4 (BDI_K57-E168)): 92.2 nM

SMILES: Cc1[nH]c(-c2ccccc2)c2c1C(=O)NCC2 [Example 100, 3-methyl-1-phenyl-2,5,6,7-tetrahydro-4H-pyrrolo[3,4-c]pyridin-4-one]
Ki (BRD4 (BDII_E352-M457)): 2920 nM | Ki (BRD4 (BDI_K57-E168)): 2250 nM

The next compounds have a lower Ki (BRD4 (BDII_E352-M457)) than those just listed; values first:

Ki (BRD4 (BDII_E352-M457)): 944 nM | Ki (BRD4 (BDI_K57-E168)): 141 nM
SMILES: Cc1[nH]c(-c2ccccc2Oc2ccccc2)c2cc(C(=O)N(C)C)[nH]c(=O)c12 [Example 41, N,N,3-trimethyl-4-oxo-1-(2-phenoxyphenyl)-4,5-dihydro-2H-pyrrolo[3,4-c]pyridine-6-carboxamide]

Ki (BRD4 (BDII_E352-M457)): 791 nM | Ki (BRD4 (BDI_K57-E168)): 108 nM
SMILES: Cc1[nH]c(-c2cc(N)ccc2Oc2ccccc2)c2nc[nH]c(=O)c12 [Example 90, 7-(5-amino-2-phenoxyphenyl)-5-methyl-3,6-dihydro-4H-pyrrolo[3,4-d]pyrimidin-4-one]

Ki (BRD4 (BDII_E352-M457)): 759 nM | Ki (BRD4 (BDI_K57-E168)): 499 nM
SMILES: CCOC(=O)c1cc2c(-c3cc([N+](=O)[O-])ccc3Oc3ccc(F)cc3F)[nH]c(C)c2c(=O)[nH]1 [Example 33, ethyl 1-[2-(2,4-difluorophenoxy)-5-nitrophenyl]-3-methyl-4-oxo-4,5-dihydro-2H-pyrrolo[3,4-c]pyridine-6-carboxylate]

Ki (BRD4 (BDII_E352-M457)): 546 nM | Ki (BRD4 (BDI_K57-E168)): 82.6 nM
SMILES: Cc1[nH]c(-c2ccccc2Oc2ccccc2)c2cc(C(=O)O)[nH]c(=O)c12 [Example 12, 3-methyl-4-oxo-1-(2-phenoxyphenyl)-4,5-dihydro-2H-pyrrolo[3,4-c]pyridine-6-carboxylic acid]

Ki (BRD4 (BDII_E352-M457)): 138 nM | Ki (BRD4 (BDI_K57-E168)): 14 nM
SMILES: Cc1[nH]c(-c2cc(NS(C)(=O)=O)ccc2Oc2ccc(F)cc2F)c2c1C(=O)NCC2 [Example 93, N-[4-(2,4-difluorophenoxy)-3-(3-methyl-4-oxo-4,5,6,7-tetrahydro-2H-pyrrolo[3,4-c]pyridin-1-yl)phenyl]methanesulfonamide]

Ki (BRD4 (BDII_E352-M457)): 117 nM | Ki (BRD4 (BDI_K57-E168)): 22.6 nM
SMILES: Cc1[nH]c(-c2cc(NS(C)(=O)=O)ccc2Oc2ccccc2)c2nc[nH]c(=O)c12 [Example 91, N-[3-(5-methyl-4-oxo-4,6-dihydro-3H-pyrrolo[3,4-d]pyrimidin-7-yl)-4-phenoxyphenyl]methanesulfonamide]

Ki (BRD4 (BDII_E352-M457)): 67.6 nM | Ki (BRD4 (BDI_K57-E168)): 31.4 nM
SMILES: Cc1[nH]c(-c2ccccc2Oc2ccccc2)c2cc[nH]c(=O)c12 [Example 14, 3-methyl-1-(2-phenoxyphenyl)-2H-pyrrolo[3,4-c]pyridin-4(5H)-one]

Ki (BRD4 (BDII_E352-M457)): 47 nM | Ki (BRD4 (BDI_K57-E168)): 14.1 nM
SMILES: Cc1[nH]c(-c2ccccc2Oc2ccccc2)c2c1C(=O)NCC2 [Example 92, 3-methyl-1-(2-phenoxyphenyl)-2,5,6,7-tetrahydro-4H-pyrrolo[3,4-c]pyridin-4-one]

Ki (BRD4 (BDII_E352-M457)): 25.8 nM | Ki (BRD4 (BDI_K57-E168)): 7.63 nM
SMILES: Cc1[nH]c(-c2ccccc2Oc2ccccc2)c2cn[nH]c(=O)c12 [Example 72, 7-methyl-5-(2-phenoxyphenyl)-2,6-dihydro-1H-pyrrolo[3,4-d]pyridazin-1-one]

Ki (BRD4 (BDII_E352-M457)): 20.4 nM | Ki (BRD4 (BDI_K57-E168)): 3.67 nM
SMILES: Cc1[nH]c(-c2cc(NS(C)(=O)=O)ccc2Oc2ccccc2)c2c1C(=O)NCC2 [Example 95, N-[3-(3-methyl-4-oxo-4,5,6,7-tetrahydro-2H-pyrrolo[3,4-c]pyridin-1-yl)-4-phenoxyphenyl]methanesulfonamide]

Ki (BRD4 (BDII_E352-M457)): 8.5 nM | Ki (BRD4 (BDI_K57-E168)): 1.49 nM
SMILES: Cc1[nH]c(-c2cc(NS(C)(=O)=O)ccc2Oc2ccccc2)c2cn[nH]c(=O)c12 [Example 73, N-[3-(7-methyl-1-oxo-2,6-dihydro-1H-pyrrolo[3,4-d]pyridazin-5-yl)-4-phenoxyphenyl]methanesulfonamide]
